In US20200368234A1, “PHOTORECEPTOR GENE MODULATOR PHOTOREGULIN 3 FOR TREATMENT OF RETINAL DISEASE” (University of Washington, priority 2017, published 2020):
Entries after “also recorded” stand apart in the source; their conditions may differ.

How the values were obtained:
[1] = biological target: T1, Nr2e3 (Homo sapiens, UniProt Q9Y5X4); assay: Isothermal titration calorimetry (ITC) of PR3 binding to Nr2e3; conditions: one site model, estimated
T1 construct: Nr2e3 protein (aa 90-410) was expressed; His8 (N, cleaved yes); MBP (N, cleaved yes); host or cells: E. coli BL21 (DE3)
Description: FIG. 1F illustrates an isothermal titration calorimetric (ITC) study of PR3 binding to Nr2e3. Nr2e3 protein was expressed as a fusion protein from the expression vector pVP16. The fusion protein was incubated with TEV overnight at 4° C. and then the His8-MBP tags were separated from Nr2e3 by ion exchange chromatography. For isothermal titration calorimetry, […] was injected into […] in a MicroCal ITC-200 (Malvern).
To confirm a direct Nr2e3-PR3 interaction, isothermal titration calorimetry (ITC) was used.
Nr2e3 protein (aa 90-410) was expressed as a His8-MBP-TEV fusion protein from the expression vector pVP16 (DNASU Plasmid ID: HsCD00084154). E. coli BL21 (DE3) cells were grown to an OD600 of 1, and then induced with 0.2 mM IPTG at 16° C. overnight. Cells were harvested, resuspended in extract buffer (20 mM Tris pH 8, 200 mM NaCl, 10% glycerol, 5 mM 2-mercaptoethanol, and saturated PMSF diluted 1:1,000), and then lysed by sonication on ice. Lysates were centrifuged at 4° C. and the supernatant was loaded onto an equilibrated column containing 5 mL of Ni-NTA agarose (Qiagen). […] For isothermal titration calorimetry, 100 μM PR3 was injected into 20 μM Nr2e3 in 10 mM sodium phosphate buffer pH 8 with 50 mM NaCl and 0.5% DMSO in a MicroCal ITC-200 (Malvern) and the data was analyzed with Origin 7.0 software.

[2] = system: S Opsin+ cells in the ventral retina; assay: S Opsin+ cell count in intact retinal explant cultures; format: cell-based; conditions: P11 mouse intact retina explants, 0.3 μM PR3, 3 DIV, vs DMSO
From the text: Scale bar represents 50 μm. E. PR3-treated retinas had more S Opsin+ cells per 100 μm×100 μm field in the ventral retina compared to DMSO-treated retinas (n=3, *p<0.05, Student's t-test).
FIG. 1E is a graph quantifying the effects of PR3 on S-opsin expression; treatment conditions were the same as those in FIG. 1D. S-opsin+ cones are predominantly present in the ventral retina of mice.
Mutations in Nr2e3 result in an increased number of S Opsin+ photoreceptors as well as a reduction in rod gene expression. To determine if PR3 treatment also affects cone gene expression, intact retinas were explanted from P11 wild type mice in media containing DMSO or PR3 for 3 days. Intact retinas were used for this experiment to assess changes in dorsal and ventral retina independently. After fixation and whole mount immunostaining, S Opsin+ cells were counted in the ventral retina.
Intact retinas without RPE from P11 C57Bl/6 mice were explanted on 0.4 μm pore tissue culture inserts in media (Neurobasal-A containing 1% FBS, 1% N2, 1% B27, 1% Pen/Strep, and 0.5% L-Glutamine) containing DMSO or 0.3 μM Photoregulin3. Full media changes were performed every other day. […] Cells were counted from single plane confocal images taken at fixed settings.

[3] = system: rod photoreceptor genes; assay: RNA sequencing of retinas of wild type mice after intraperitoneal PR3; format: in vivo; conditions: 10 mg/kg i.p. at P12, retinas collected 24 h later
Description: Nr2e3 signaling is important for rod photoreceptor cell fate, development and maturation, and maintenance of expression. To determine the effect of PR3 treatment on gene expression in postmitotic retinal cells, wild type mice were systemically treated (intraperitoneal injection) with PR3 or vehicle at P12. At P13, 24 h after the injection, the retinas were collected for global transcriptome analysis by RNA sequencing.
Photoregulin3 was identified by searching previous small molecule screens with SciFinder and PubChem for Nr2e3 interacting molecules. It was initially obtained from ChemDiv and then synthesized and purified in large quantities in the lab after initial screening. For in vivo experiments, mice were injected intraperitoneally with PR3 dissolved in DMSO at 10 mg/kg.
RNA from retinas was isolated using TRIzol (Invitrogen) and total RNA integrity was checking using an Agilent 4200 TapeStation and quantified using a Trinean DropSense96 spectrophotometer. RNA-seq libraries were prepared from total RNA using the TruSeq RNA Sample Prep kit (Illumina) and a Sciclone NGSx Workstation (PerkinElmer). Library size distributions were validated using an Agilent 4200 TapeStation. Additional Library quality control, blending of pooled indexed libraries, and cluster optimization were performed using Life Technologies' Invitrogen Qubit Fluorometer. RNA-seq libraries were pooled (4-plex) and clustered onto a flow cell lane. Sequencing was performed using an Illumina HiSeq 2500 in rapid mode employing a paired-end, 50 base read length (PE50) sequencing strategy.

T1 sequence (Q9Y5X4 90-410): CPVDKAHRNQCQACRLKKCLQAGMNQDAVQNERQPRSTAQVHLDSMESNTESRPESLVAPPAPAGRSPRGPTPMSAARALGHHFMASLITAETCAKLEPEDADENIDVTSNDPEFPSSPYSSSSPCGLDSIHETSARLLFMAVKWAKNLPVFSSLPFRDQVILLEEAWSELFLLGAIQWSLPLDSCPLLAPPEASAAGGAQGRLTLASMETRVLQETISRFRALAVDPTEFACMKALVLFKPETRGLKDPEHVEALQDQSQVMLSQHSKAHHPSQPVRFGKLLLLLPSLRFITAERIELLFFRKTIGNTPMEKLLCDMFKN

Question: Which results are given for COc1cc2nc(CN3CC=C(c4ccccc4)CC3)nc(O)c2cc1OC [PR3]?
Answer: Kd [1]: ~67 µM; S Opsin+ cells per 100 μm×100 μm field in the ventral retina [2]: significantly more S Opsin+ cells per 100 μm×100 μm field in the ventral retina compared to DMSO-treated retinas; also recorded: increase in the number S Opsin+ cells in the ventral retina; cone gene expression (RNA sequencing) [3]: large and global increases in cone gene expression were not observed; toxicity to retinal cells (cell death and cell stress genes, RNA sequencing) [3]: not toxic to retinal cells; rod photoreceptor gene expression (RNA sequencing) ([3]; 10 mg/kg): robust reduction in rod photoreceptor genes; also recorded: decrease in most rod photoreceptor-specific transcripts
